Here are results for one compound from ChEMBL document CHEMBL1158018 (J Nat Prod, 1999).

The nature of assay [1]: Antioxidant activity in liposomal model assessed as inhibition of ferrous ion-induced lipid peroxidation at 2 mM. It is filed as functional. Details: scale not given: the % may be the effect or the level left.
For assay [2], the target named is Prostaglandin G/H synthase 1 (Homo sapiens, UniProt P23219). Briefly: Inhibition of PGHS1 assessed as conversion of arachidonic acid to prostaglandin.
Sequence of Prostaglandin G/H synthase 1 (P23219 whole entry): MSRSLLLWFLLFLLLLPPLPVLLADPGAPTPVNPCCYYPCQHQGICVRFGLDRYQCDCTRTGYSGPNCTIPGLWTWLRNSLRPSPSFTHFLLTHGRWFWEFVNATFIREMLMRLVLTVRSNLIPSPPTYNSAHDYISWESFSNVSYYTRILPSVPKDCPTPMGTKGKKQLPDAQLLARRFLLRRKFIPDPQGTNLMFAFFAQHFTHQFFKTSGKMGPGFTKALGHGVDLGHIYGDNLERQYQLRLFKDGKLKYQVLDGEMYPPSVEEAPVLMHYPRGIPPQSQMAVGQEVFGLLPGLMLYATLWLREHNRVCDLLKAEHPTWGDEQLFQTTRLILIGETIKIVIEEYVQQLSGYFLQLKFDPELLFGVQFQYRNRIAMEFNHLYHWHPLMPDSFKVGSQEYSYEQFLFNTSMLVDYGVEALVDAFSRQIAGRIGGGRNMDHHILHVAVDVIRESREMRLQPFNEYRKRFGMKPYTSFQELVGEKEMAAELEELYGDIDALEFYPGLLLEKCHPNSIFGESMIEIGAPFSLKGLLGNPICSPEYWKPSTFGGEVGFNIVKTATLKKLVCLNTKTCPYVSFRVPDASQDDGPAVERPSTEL

Consider `Oc1cc(O)c2cc(O)c(-c3ccc(O)c(O)c3)[o+]c2c1` [CYANIDIN], for which, in assay [1], the Activity was determined as 57%. Further, in assay [2], the IC50 was found to be 90 µM.
